Measurements published in ChEMBL document CHEMBL1136853, “Synthesis and SAR of vinca alkaloid analogues” (Bioorg Med Chem Lett, 2009).

What was measured:
[1] = system: MCF7; assay: Cytotoxicity against human MCF7 cells; assay type: functional
[2] = system: HeLa; assay: Cytotoxicity against human HeLa cells; assay type: functional
[3] = system: P388; assay: Antitumor activity against mouse P388 cells xenografted in mouse assessed as median life span at 4 mg/kg, ip q4d for 3 days measured for 60 days; assay type: functional; conditions: route intraperitoneal
[4] = system: P388; assay: Antitumor activity against mouse P388 cells xenografted in mouse assessed as median life span at 2 mg/kg, ip q4d for 3 days measured for 60 days; assay type: functional; conditions: route intraperitoneal
[5] = system: P388; assay: Antitumor activity against mouse P388 cells xenografted in mouse assessed as median life span at 6 mg/kg, ip q4d for 3 days measured for 60 days; assay type: functional; conditions: route intraperitoneal
[6] = system: P388; assay: Antitumor activity against mouse P388 cells xenografted in mouse assessed as median life span at 3 mg/kg, ip q4d for 3 days measured for 60 days; assay type: functional; conditions: route intraperitoneal
[7] = system: P388; assay: Antitumor activity against mouse P388 cells xenografted in mouse assessed as median life span at 12 mg/kg, ip q4d for 3 days measured for 60 days; assay type: functional; conditions: route intraperitoneal
[8] = Toxicity to mouse assessed as mortality at 12 mg/kg, ip q4d for 3 days; assay type: organism-based; design: dose 12 mg/kg, route intraperitoneal; conditions: in vivo, read-out: Activity

| Structure (SMILES) | GI50 [1] [nM] | GI50 [2] [nM] | T/C [3] [%] | T/C [4] [%] | T/C [5] [%] | T/C [6] [%] | T/C [7] [%] | mortality at 72 h [8] [%] |
| --- | --- | --- | --- | --- | --- | --- | --- | --- |
| CCC1=C[C@H]2CN(C1)Cc1c([nH]c3ccc(SC)cc13)[C@@](C(=O)OC)(c1cc3c(cc1OC)N(C)[C@H]1[C@@](O)(C(=O)OC)[C@H](OC(C)=O)[C@]4(CC)CC=CN5CC[C@]31[C@@H]54)C2 | 1 | 0.3 | 124 | 102 | – | – | – | – |
| CC[C@]1(O)C[C@H]2CN(CCc3c([nH]c4ccc(C)cc34)[C@@](C(=O)OC)(c3cc4c(cc3OC)N(C)[C@H]3[C@@](O)(C(=O)OC)[C@H](OC(C)=O)[C@]5(CC)CC=CN6CC[C@]43[C@@H]65)C2)C1 | 0.3 | 0.3 | – | – | 181 | 133 | – | – |
| CCC1=C[C@@H]2CN(C1)Cc1c([nH]c3ccccc13)[C@@](C(=O)OC)(c1cc3c(cc1OC)N(C)[C@H]1[C@@](O)(C(=O)OC)[C@H](OC(C)=O)[C@]4(CC)C=CCN5CC[C@]31[C@@H]54)C2 [VINORELBINE] | 2.4 | 2.7 | – | – | 114 | – | 117 | > 10 |
